# Reference: patent US7115599B2, “Sulfonamide-substituted pyrazolopyridine compounds” (Bayer Aktiengesellschaft, priority 2000, dated 2006)
# Test system: rabbit aorta rings
# Assay: Vasorelaxant effect in vitro (phenylephrine-contracted rabbit aortic rings)
# Conditions: Oryctolagus cuniculus; concentration reducing height of phenylephrine-induced contraction of rabbit aorta rings by 50%; 0.1% DMSO, 37° C.
# Protocol: Rabbits are stunned by a blow to the back of the neck and are exsanguinated. The aorta is removed, freed of adherent tissue, divided into rings 1.5 mm wide and put singly under tension in 5 ml organ baths containing carbogen-gassed Krebs-Henseleit solution at 37° C. with the following composition (mM): NaCl: 119; KCl: 4.8; CaCl2×2H2O: 1; MgSO4×7H2O: 1.4; KH2PO4: 1.2; NaHCO3: 25; glucose: 10. The force of contraction is detected with Statham UC2 cells, amplified and digitized via A/D converters (DAS-1802 HC, Keithley Instruments Munich) and recorded in parallel on chart recorders. A contraction is generated by adding phenylephrine to the bath cumulatively in increasing concentration. After several control cycles, the substance to be investigated is investigated in each further run in increasing dosage in each case, and the height of the contraction is compared with the height of the contraction reached in the last preceding run. The concentration necessary to reduce the height of the control value by 50% (IC50) is calculated from this. The standard application volume is 5 μl, and the DMSO content in the bath solution corresponds to 0.1%.
row,IC50 [nM],Compound
1,290,"Nc1nc(-c2nn(Cc3ccccc3F)c3ncccc23)nc(Cl)c1N1CCCS1(=O)=O [Example 1, 6-Chloro-5-(1,1-dioxido-2-isothiazolidinyl)-2-[1-(2-fluorobenzyl)-1H-pyrazolo[3,4-b]pyridin-3-yl]-4-pyrimidinediamine]"
2,350,"Nc1nc(-c2nn(Cc3ccccc3F)c3ncccc23)nc(N)c1N1CCCS1(=O)=O [Example 3, 5-(1,1-Dioxido-2-isothiazolidinyl)-2-[1-(2-fluorobenzyl)-1H-pyrazolo[3,4-b]pyridin-3-yl]-4,6-pyrimidineamine]"
